From patent US8338465B2, “Cyclic carboxylic acid rhodanine derivatives for the treatment and prevention of tuberculosis” (priority 2006, dated 2012)

The compounds below were run against T1, dihydrolipoamide acyltransferase (DlaT) (Mycobacterium tuberculosis, UniProt P9WIS7) (assay: DlaT inhibition (Dlat IC50); DTNB peroxidase assay with Lpd, DlaT and AhpD). Conditions: Table 1, Compounds A1 to A294; read-out: Dlat IC50 category.
T1 sequence (P9WIS7 1-553): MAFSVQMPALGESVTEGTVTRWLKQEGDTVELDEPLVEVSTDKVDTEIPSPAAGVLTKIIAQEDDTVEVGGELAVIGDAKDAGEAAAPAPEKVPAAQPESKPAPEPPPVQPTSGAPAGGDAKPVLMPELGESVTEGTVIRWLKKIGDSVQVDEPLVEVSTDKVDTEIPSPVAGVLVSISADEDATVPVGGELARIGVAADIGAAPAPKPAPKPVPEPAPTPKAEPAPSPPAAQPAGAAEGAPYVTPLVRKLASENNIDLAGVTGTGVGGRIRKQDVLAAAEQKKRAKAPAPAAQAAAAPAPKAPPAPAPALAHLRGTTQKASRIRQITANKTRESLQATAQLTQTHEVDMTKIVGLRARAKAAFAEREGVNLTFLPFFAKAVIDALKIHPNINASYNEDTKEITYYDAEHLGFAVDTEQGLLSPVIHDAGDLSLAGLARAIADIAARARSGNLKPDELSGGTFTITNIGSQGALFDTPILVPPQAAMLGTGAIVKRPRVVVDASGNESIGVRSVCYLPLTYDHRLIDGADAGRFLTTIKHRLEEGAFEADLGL
Type: biochemical

SMILES | IC50 [µM]
CC(C)Cc1ccc(-c2ccc(C=C3SC(=S)N(c4ccc(O)c(C(=O)O)c4)C3=O)o2)cc1 [Compound A65] | < 10
O=C(O)c1cc(N2C(=O)C(=Cc3ccc(-c4ccccc4Cl)o3)SC2=S)ccc1Cl [Compound A66] | < 10
O=C(O)c1cc(N2C(=O)C(=Cc3ccc(-c4cccc(C(F)(F)F)c4)o3)SC2=S)ccc1Cl [Compound A67] | < 10
O=C(O)c1cc(N2C(=O)C(=Cc3ccc(-c4ccc(Cl)cc4)o3)SC2=S)ccc1Cl [Compound A68] | < 10
O=C(O)c1cc(N2C(=O)C(=Cc3ccc(-c4ccccc4OC(F)(F)F)o3)SC2=S)ccc1Cl [Compound A69] | < 10
O=C(O)c1cccc(N2C(=O)C(=Cc3ccc(-c4ccccc4OC(F)(F)F)o3)SC2=S)c1 [Compound A70] | < 10
O=C(O)c1ccc(Cl)c(N2C(=O)C(=Cc3ccc(-c4ccccc4Cl)o3)SC2=S)c1 [Compound A71] | < 10
O=C(O)c1ccc(Cl)c(N2C(=O)C(=Cc3ccc(-c4ccc(Cl)cc4)o3)SC2=S)c1 [Compound A72] | < 10
O=C(O)c1ccc(Cl)c(N2C(=O)C(=Cc3ccc(-c4cccc(C(F)(F)F)c4)o3)SC2=S)c1 [Compound A73] | < 10
COc1ccc(C(=O)O)cc1N1C(=O)C(=Cc2ccc(-c3ccccc3Cl)o2)SC1=S [Compound A74] | < 10
NC(=O)c1cccc(N2C(=O)C(=Cc3ccc(-c4ccccc4Cl)o3)SC2=S)c1 [Compound A75] | 11 to 40
NC(=O)c1cccc(N2C(=O)C(=Cc3ccc(-c4cccc(C(F)(F)F)c4)o3)SC2=S)c1 [Compound A76] | 11 to 40
NC(=O)c1cccc(N2C(=O)C(=Cc3ccc(-c4ccc(Cl)cc4)o3)SC2=S)c1 [Compound A77] | 11 to 40
Cc1ccc(C(=O)O)cc1N1C(=O)C(=Cc2ccc(-c3ccccc3Cl)o2)SC1=S [Compound A78] | < 10
Cc1c(C(=O)O)cccc1N1C(=O)C(=Cc2ccc(-c3ccccc3Cl)o2)SC1=S [Compound A79] | < 10
Cc1ccc(C(=O)O)cc1N1C(=O)C(=Cc2ccc(-c3ccc(C(C)(C)C)cc3)o2)SC1=S [Compound A80] | < 10
Cc1c(C(=O)O)cccc1N1C(=O)C(=Cc2ccc(-c3ccc(C(C)(C)C)cc3)o2)SC1=S [Compound A81] | < 10
Cc1ccc(C(=O)O)cc1N1C(=O)C(=Cc2ccc(-c3ccc(C4CCCCC4)cc3)o2)SC1=S [Compound A82] | < 10
Cc1c(C(=O)O)cccc1N1C(=O)C(=Cc2ccc(-c3ccc(C4CCCCC4)cc3)o2)SC1=S [Compound A83] | < 10
O=C(O)c1cccc(N2C(=O)C(=Cc3ccc(-c4ccc(Cc5ccc(Cl)cc5)cc4)o3)SC2=S)c1 [Compound A84] | < 10
COc1ccc(C(=O)O)cc1N1C(=O)C(=Cc2ccc(-c3cccc(C(F)(F)F)c3)o2)SC1=S [Compound A86] | < 10
COc1ccc(C(=O)O)cc1N1C(=O)C(=Cc2ccc(-c3ccc(Cl)cc3)o2)SC1=S [Compound A87] | < 10
O=C(O)c1cc(N2C(=O)C(=Cc3ccc(-c4ccccc4Cl)o3)SC2=S)cc([N+](=O)[O-])c1 [Compound A88] | < 10

SMILES | IC50 [µM]
O=C(O)c1cc(N2C(=O)C(=Cc3ccc(-c4cccc(C(F)(F)F)c4)o3)SC2=S)cc([N+](=O)[O-])c1 [Compound A89] | 11 to 40
O=C(O)c1cc(N2C(=O)C(=Cc3ccc(-c4ccc(Cl)cc4)o3)SC2=S)cc([N+](=O)[O-])c1 [Compound A90] | < 10
COc1ccc(C(=O)O)cc1N1C(=O)C(=Cc2ccc(-c3ccc(CC(C)C)cc3)o2)SC1=S [Compound A91] | < 10
CC(C)Cc1ccc(-c2ccc(C=C3SC(=S)N(c4cc(C(=O)O)ccc4Cl)C3=O)o2)cc1 [Compound A92] | < 10
COc1ccc(C(=O)O)cc1N1C(=O)C(=Cc2ccc(-c3cccc(C(C)C)c3)o2)SC1=S [Compound A93] | < 10
O=C(O)c1cccc(N2C(=O)C(=Cc3ccc(-c4ccc(C5CCCC5)cc4)o3)SC2=S)c1 [Compound A94] | < 10
CC(C)(c1ccccc1)c1ccc(-c2ccc(C=C3SC(=S)N(c4cccc(C(=O)O)c4)C3=O)o2)cc1 [Compound A95] | < 10
CC(C)(c1ccccc1)c1ccc(-c2ccc(C=C3SC(=S)N(c4cc(C(=O)O)ccc4Cl)C3=O)o2)cc1 [Compound A96] | < 10
COc1ccc(C(=O)O)cc1N1C(=O)C(=Cc2ccc(-c3ccc(C(C)(C)c4ccccc4)cc3)o2)SC1=S [Compound A97] | 11 to 40
Cc1c(C(=O)O)cccc1N1C(=O)C(=Cc2ccc(-c3ccc(C(C)(C)c4ccccc4)cc3)o2)SC1=S [Compound A98] | < 10
O=C(O)c1ccc(F)c(N2C(=O)C(=Cc3ccc(-c4ccccc4Cl)o3)SC2=S)c1 [Compound A99] | < 10
CC(C)(C)c1ccc(-c2ccc(C=C3SC(=S)N(c4cc(C(=O)O)ccc4F)C3=O)o2)cc1 [Compound A100] | < 10
O=C(O)c1ccc(F)c(N2C(=O)C(=Cc3ccc(-c4ccc(C5CCCCC5)cc4)o3)SC2=S)c1 [Compound A101] | < 10
Cc1ccc(C(=O)O)cc1N1C(=O)C(=Cc2ccc(-c3ccc(C(C)(C)c4ccccc4)cc3)o2)SC1=S [Compound A102] | < 10
O=C(O)c1ccc(F)c(N2C(=O)C(=Cc3ccc(-c4cccc(C(F)(F)F)c4)o3)SC2=S)c1 [Compound A103] | < 10
O=C(O)c1ccc(F)c(N2C(=O)C(=Cc3ccc(-c4ccc(Cl)cc4)o3)SC2=S)c1 [Compound A104] | < 10
O=C(O)c1ccc(F)c(N2C(=O)C(=Cc3ccc(-c4ccc(Cl)c(Cl)c4)o3)SC2=S)c1 [Compound A105] | < 10
O=C(O)c1ccc(F)c(N2C(=O)C(=Cc3ccc(-c4c(Cl)cccc4Cl)o3)SC2=S)c1 [Compound A106] | < 10
O=C(O)c1ccc(Cl)c(N2C(=O)C(=Cc3ccc(-c4ccc(Cl)c(Cl)c4)o3)SC2=S)c1 [Compound A107] | < 10
O=C(O)c1cc(N2C(=O)C(=Cc3ccc(-c4ccc(Cl)c(Cl)c4)o3)SC2=S)ccc1Cl [Compound A108] | < 10
O=C(O)c1cc(N2C(=O)C(=Cc3ccc(-c4c(Cl)cccc4Cl)o3)SC2=S)ccc1Cl [Compound A109] | < 10
O=C(O)c1ccc(Cl)c(N2C(=O)C(=Cc3ccc(-c4c(Cl)cccc4Cl)o3)SC2=S)c1 [Compound A110] | < 10
Cc1c(C(=O)O)cccc1N1C(=O)C(=Cc2ccc(-c3ccc(Cl)c(Cl)c3)o2)SC1=S [Compound A111] | < 10

SMILES | IC50 [µM]
Cc1c(C(=O)O)cccc1N1C(=O)C(=Cc2ccc(-c3c(Cl)cccc3Cl)o2)SC1=S [Compound A112] | < 10
Cc1ccc(C(=O)O)cc1N1C(=O)C(=Cc2ccc(-c3ccc(Cl)c(Cl)c3)o2)SC1=S [Compound A113] | < 10
Cc1ccc(C(=O)O)cc1N1C(=O)C(=Cc2ccc(-c3c(Cl)cccc3Cl)o2)SC1=S [Compound A114] | < 10
O=C(O)c1cccc(N2C(=O)C(=Cc3ccc(-c4ccc(C(=O)O)c(O)c4)o3)SC2=S)c1 [Compound A115] | 11 to 40
CN(C)c1ccc(-c2ccc(C=C3SC(=S)N(c4cccc(C(=O)O)c4)C3=O)o2)cc1 [Compound A116] | 11 to 40
O=C(O)c1cccc(N2C(=O)C(=Cc3ccc(-c4cccc(Cl)c4Cl)o3)SC2=S)c1 [Compound A117] | < 10
O=C(O)CCc1cccc(N2C(=O)C(=Cc3ccc(-c4ccccc4Cl)o3)SC2=S)c1 [Compound A118] | < 10
O=C(O)CCc1cccc(N2C(=O)C(=Cc3ccc(-c4cccc(Cl)c4)o3)SC2=S)c1 [Compound A119] | < 10
O=C(O)CCc1cccc(N2C(=O)C(=Cc3ccc(-c4ccc(Cl)cc4)o3)SC2=S)c1 [Compound A120] | < 10
O=C(O)c1cccc(N2C(=O)C(=Cc3ccc(-c4cc(Cl)cc(Cl)c4)o3)SC2=S)c1 [Compound A121] | 11 to 40
CN(C)Cc1ccc(-c2ccc(C=C3SC(=S)N(c4cccc(C(=O)O)c4)C3=O)o2)cc1 [Compound A122] | 11 to 40
O=C(O)c1cccc(N2C(=O)C(=Cc3ccc(-c4ccc(Br)cc4)o3)SC2=S)c1 [Compound A123] | 11 to 40
O=C(O)c1cccc(N2C(=O)C(=Cc3ccc(-c4ccc(O)cc4Cl)o3)SC2=S)c1 [Compound A124] | < 10
CN(C)c1cccc(-c2ccc(C=C3SC(=S)N(c4cccc(C(=O)O)c4)C3=O)o2)c1 [Compound A125] | < 10
C#Cc1ccc(-c2ccc(C=C3SC(=S)N(c4cccc(C(=O)O)c4)C3=O)o2)cc1 [Compound A126] | 11 to 40
O=C(O)c1cccc(N2C(=O)C(=Cc3ccc(-c4cccc([N+](=O)[O-])c4)o3)SC2=S)c1 [Compound A127] | < 10
O=C(O)c1ccc(Cl)c(N2C(=O)C(=Cc3ccc(-c4cccc([N+](=O)[O-])c4)o3)SC2=S)c1 [Compound A128] | < 10
O=C(O)c1cccc(N2C(=O)C(=Cc3ccc(-c4ccccc4[N+](=O)[O-])o3)SC2=S)c1 [Compound A129] | > 41
O=C(O)c1cccc(N2C(=O)C(=Cc3ccc(-c4ccc([N+](=O)[O-])cc4)o3)SC2=S)c1 [Compound A130] | 11 to 40
O=C(O)c1cccc(N2C(=O)C(=Cc3ccc(-c4ccc(Cl)cc4[N+](=O)[O-])o3)SC2=S)c1 [Compound A131] | 11 to 40
O=C(O)c1cccc(N2C(=O)C(=Cc3ccc(-c4ccccc4Br)o3)SC2=S)c1 [Compound A132] | 11 to 40
